Source: PubChem BioAssay AID2060893 (Molecular Pharmacology Branch, DTP, NCI, 2025)
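Also: spheroids exposed to agents for seven days before readout.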

These molecules were tested on K86415-001-R-J1-PDC complex spheroids, viability (assay: Anticancer human tumor K86415-001-R-J1-PDC patient-derived lung adenocarcinoma cell line growth inhibition [RAS]). Conditions: second compound 0.00316 µM; first compound 3.16 µM; stronger effect = lower value.
Method in brief: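 Multi-cell-type spheroids: tumor cells plus HUVEC endothelial cells and mesenchymal stem cells. RAS-pathway inhibitors were combined with targeted agents, each dosed in half-log steps down from clinical Cmax, or from 10 microM when Cmax was unknown.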
With `CC1(O)CCCC1n1c(=O)c(C(F)F)cc2cnc(NC3CCN(S(C)(=O)=O)CC3)nc21` (stereo unspecified) + C=CC(=O)N1CCN(c2nc(OCC3CCCN3C)nc3c(F)c(-c4nc(N)cc(C)c4C(F)(F)F)c(Cl)cc23)C(C)C1 the viability, T/C was 28.1%.
With `CCC(CC)c1cc(NC2CCC(N)C2)n2nccc2n1` (stereo unspecified) + C=CC(=O)N1CCN(c2nc(OCC3CCCN3C)nc3c(F)c(-c4nc(N)cc(C)c4C(F)(F)F)c(Cl)cc23)C(C)C1 the viability, T/C was 2.88%.
`Cc1nc(N2CCC3(CC2)COC(C)C3N)c(CO)nc1Sc1ccnc(N)c1Cl` (stereo unspecified) + C=CC(=O)N1CCN(c2nc(OCC3CCCN3C)nc3c(F)c(-c4nc(N)cc(C)c4C(F)(F)F)c(Cl)cc23)C(C)C1 was tested, and the viability, T/C was 3.59%.
`NC1c2ccccc2OC12CCN(c1cnc3c(N4CCCc5ncccc54)n[nH]c3n1)CC2` (stereo unspecified) + C=CC(=O)N1CCN(c2nc(OCC3CCCN3C)nc3c(F)c(-c4nc(N)cc(C)c4C(F)(F)F)c(Cl)cc23)C(C)C1 showed a viability, T/C of 4.88%.

Same assay, conditions: second compound 0.00316 µM; first compound 10 µM; stronger effect = lower value
Molecule `CC1(O)CCCC1n1c(=O)c(C(F)F)cc2cnc(NC3CCN(S(C)(=O)=O)CC3)nc21` (stereo unspecified) + C=CC(=O)N1CCN(c2nc(OCC3CCCN3C)nc3c(F)c(-c4nc(N)cc(C)c4C(F)(F)F)c(Cl)cc23)C(C)C1 has a viability, T/C of 5.41%.
`CCC(CC)c1cc(NC2CCC(N)C2)n2nccc2n1` (stereo unspecified) + C=CC(=O)N1CCN(c2nc(OCC3CCCN3C)nc3c(F)c(-c4nc(N)cc(C)c4C(F)(F)F)c(Cl)cc23)C(C)C1 gave a viability, T/C of 3.26%.
`Cc1nc(N2CCC3(CC2)COC(C)C3N)c(CO)nc1Sc1ccnc(N)c1Cl` (stereo unspecified) + C=CC(=O)N1CCN(c2nc(OCC3CCCN3C)nc3c(F)c(-c4nc(N)cc(C)c4C(F)(F)F)c(Cl)cc23)C(C)C1 was tested, and the viability, T/C was 4.75%.
`NC1c2ccccc2OC12CCN(c1cnc3c(N4CCCc5ncccc54)n[nH]c3n1)CC2` (stereo unspecified) + C=CC(=O)N1CCN(c2nc(OCC3CCCN3C)nc3c(F)c(-c4nc(N)cc(C)c4C(F)(F)F)c(Cl)cc23)C(C)C1 was tested, and the viability, T/C was 5.36%.

Same assay, conditions: second compound 0.01 µM; first compound 0.00316 µM; stronger effect = lower value
With `CCN1CCN(Cc2ccc(Nc3ncc(F)c(-c4cc(F)c5nc(C)n(C(C)C)c5c4)n3)nc2)CC1` + C=CC(=O)N1CCN(c2nc(OCC3CCCN3C)nc3c(F)c(-c4nc(N)cc(C)c4C(F)(F)F)c(Cl)cc23)C(C)C1 the viability, T/C was 10.3%.

Same assay, conditions: second compound 0.01 µM; first compound 0.01 µM; stronger effect = lower value
Molecule `CCN1CCN(Cc2ccc(Nc3ncc(F)c(-c4cc(F)c5nc(C)n(C(C)C)c5c4)n3)nc2)CC1` + C=CC(=O)N1CCN(c2nc(OCC3CCCN3C)nc3c(F)c(-c4nc(N)cc(C)c4C(F)(F)F)c(Cl)cc23)C(C)C1 has a viability, T/C of 11.2%.

Same assay, conditions: second compound 0.01 µM; first compound 0.0316 µM; stronger effect = lower value
Work on `CC1(O)CCCC1n1c(=O)c(C(F)F)cc2cnc(NC3CCN(S(C)(=O)=O)CC3)nc21` (stereo unspecified) + C=CC(=O)N1CCN(c2nc(OCC3CCCN3C)nc3c(F)c(-c4nc(N)cc(C)c4C(F)(F)F)c(Cl)cc23)C(C)C1 yielded a viability, T/C of 13.1%.
`CCC(CC)c1cc(NC2CCC(N)C2)n2nccc2n1` (stereo unspecified) + C=CC(=O)N1CCN(c2nc(OCC3CCCN3C)nc3c(F)c(-c4nc(N)cc(C)c4C(F)(F)F)c(Cl)cc23)C(C)C1 was tested, and the viability, T/C was 13.3%.
For `CCN1CCN(Cc2ccc(Nc3ncc(F)c(-c4cc(F)c5nc(C)n(C(C)C)c5c4)n3)nc2)CC1` + C=CC(=O)N1CCN(c2nc(OCC3CCCN3C)nc3c(F)c(-c4nc(N)cc(C)c4C(F)(F)F)c(Cl)cc23)C(C)C1, the viability, T/C was 12.3%.
With `Cc1nc(N2CCC3(CC2)COC(C)C3N)c(CO)nc1Sc1ccnc(N)c1Cl` (stereo unspecified) + C=CC(=O)N1CCN(c2nc(OCC3CCCN3C)nc3c(F)c(-c4nc(N)cc(C)c4C(F)(F)F)c(Cl)cc23)C(C)C1 the viability, T/C was 12.1%.
`NC1c2ccccc2OC12CCN(c1cnc3c(N4CCCc5ncccc54)n[nH]c3n1)CC2` (stereo unspecified) + C=CC(=O)N1CCN(c2nc(OCC3CCCN3C)nc3c(F)c(-c4nc(N)cc(C)c4C(F)(F)F)c(Cl)cc23)C(C)C1 gave a viability, T/C of 7.19%.

Same assay, conditions: second compound 0.01 µM; first compound 0.1 µM; stronger effect = lower value
`CC1(O)CCCC1n1c(=O)c(C(F)F)cc2cnc(NC3CCN(S(C)(=O)=O)CC3)nc21` (stereo unspecified) + C=CC(=O)N1CCN(c2nc(OCC3CCCN3C)nc3c(F)c(-c4nc(N)cc(C)c4C(F)(F)F)c(Cl)cc23)C(C)C1 showed a viability, T/C of 12.6%.
`CCC(CC)c1cc(NC2CCC(N)C2)n2nccc2n1` (stereo unspecified) + C=CC(=O)N1CCN(c2nc(OCC3CCCN3C)nc3c(F)c(-c4nc(N)cc(C)c4C(F)(F)F)c(Cl)cc23)C(C)C1 was tested, and the viability, T/C was 12.7%.
`CCN1CCN(Cc2ccc(Nc3ncc(F)c(-c4cc(F)c5nc(C)n(C(C)C)c5c4)n3)nc2)CC1` + C=CC(=O)N1CCN(c2nc(OCC3CCCN3C)nc3c(F)c(-c4nc(N)cc(C)c4C(F)(F)F)c(Cl)cc23)C(C)C1 was tested, and the viability, T/C was 10.7%.
`Cc1nc(N2CCC3(CC2)COC(C)C3N)c(CO)nc1Sc1ccnc(N)c1Cl` (stereo unspecified) + C=CC(=O)N1CCN(c2nc(OCC3CCCN3C)nc3c(F)c(-c4nc(N)cc(C)c4C(F)(F)F)c(Cl)cc23)C(C)C1 was tested, and the viability, T/C was 8.08%.
With `NC1c2ccccc2OC12CCN(c1cnc3c(N4CCCc5ncccc54)n[nH]c3n1)CC2` (stereo unspecified) + C=CC(=O)N1CCN(c2nc(OCC3CCCN3C)nc3c(F)c(-c4nc(N)cc(C)c4C(F)(F)F)c(Cl)cc23)C(C)C1 the viability, T/C was 5.33%.

Same assay, conditions: second compound 0.01 µM; first compound 0.316 µM; stronger effect = lower value
With `CC1(O)CCCC1n1c(=O)c(C(F)F)cc2cnc(NC3CCN(S(C)(=O)=O)CC3)nc21` (stereo unspecified) + C=CC(=O)N1CCN(c2nc(OCC3CCCN3C)nc3c(F)c(-c4nc(N)cc(C)c4C(F)(F)F)c(Cl)cc23)C(C)C1 the viability, T/C was 12.4%.
Molecule `CCC(CC)c1cc(NC2CCC(N)C2)n2nccc2n1` (stereo unspecified) + C=CC(=O)N1CCN(c2nc(OCC3CCCN3C)nc3c(F)c(-c4nc(N)cc(C)c4C(F)(F)F)c(Cl)cc23)C(C)C1 has a viability, T/C of 16.9%.
For `CCN1CCN(Cc2ccc(Nc3ncc(F)c(-c4cc(F)c5nc(C)n(C(C)C)c5c4)n3)nc2)CC1` + C=CC(=O)N1CCN(c2nc(OCC3CCCN3C)nc3c(F)c(-c4nc(N)cc(C)c4C(F)(F)F)c(Cl)cc23)C(C)C1, the viability, T/C was 13.3%.
`Cc1nc(N2CCC3(CC2)COC(C)C3N)c(CO)nc1Sc1ccnc(N)c1Cl` (stereo unspecified) + C=CC(=O)N1CCN(c2nc(OCC3CCCN3C)nc3c(F)c(-c4nc(N)cc(C)c4C(F)(F)F)c(Cl)cc23)C(C)C1 was tested, and the viability, T/C was 5.96%.
`NC1c2ccccc2OC12CCN(c1cnc3c(N4CCCc5ncccc54)n[nH]c3n1)CC2` (stereo unspecified) + C=CC(=O)N1CCN(c2nc(OCC3CCCN3C)nc3c(F)c(-c4nc(N)cc(C)c4C(F)(F)F)c(Cl)cc23)C(C)C1 was tested, and the viability, T/C was 4.69%.

Same assay, conditions: second compound 0.01 µM; first compound 1 µM; stronger effect = lower value
`CC1(O)CCCC1n1c(=O)c(C(F)F)cc2cnc(NC3CCN(S(C)(=O)=O)CC3)nc21` (stereo unspecified) + C=CC(=O)N1CCN(c2nc(OCC3CCCN3C)nc3c(F)c(-c4nc(N)cc(C)c4C(F)(F)F)c(Cl)cc23)C(C)C1 was tested, and the viability, T/C was 12.3%.
